These molecules were tested on Hs578T (assay: normalised viability (% of control), CellTiter-Blue; higher = more viable cells (100 = DMSO, 0 = benzethonium chloride kill control)). Conditions: incubation time: 72 h.
Protocol: (§1)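 DSRT, CellTiter-Blue viability, 72 h incubation. Signal is normalised to DMSO and benzethonium chloride controls. Value is the normalised response at dose 1.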

Row | SMILES | normalised viability
1 | NC(=O)c1ccc(I)c([N+](=O)[O-])c1 [Iniparib] (1 nM) | 116%
2 | Oc1ccc2c(c1)CC[C@H](c1ccccc1)[C@@H]2c1ccc(OCCN2CCCC2)cc1 [Lasofoxifene] (0.1 nM) | 96.6%
3 | Cc1ccc(NC(=O)c2ccc(CN3CCN(C)CC3)cc2)cc1Nc1nc(-c2cccnc2)cs1 [Masitinib] (1 nM) | 109%
4 | O=C(Nc1cccnc1)N1CCC(Cc2cccc(Oc3ccc(C(F)(F)F)cn3)c2)CC1 [PF-3845] (1 nM) | 135%
5 | Cc1[nH]c2ccccc2c1CCNCc1ccc(/C=C/C(=O)NO)cc1 [Panobinostat] (0.1 nM) | 100%
6 | COCC1(CO)C(=O)C2CCN1CC2 (centres undefined) [Prima-1 Met] (1 nM) | 114%

What follows are molecules tested on MDA-MB-453 in the same assay as above. Conditions: incubation time: 72 h.
Protocol: as §1

Row | SMILES | normalised viability
7 | C=C1C[C@@H]2[C@H](CC[C@]3(C)C(=O)CC[C@@H]23)[C@@]2(C)C=CC(=O)C=C12 [Exemestane] (1 nM) | 99.2%
8 | O=C(Nc1ccncc1)C(=O)c1cn(Cc2ccc(Cl)cc2)c2ccccc12 [Indibulin] (1 nM) | 103%
9 | NC(=O)c1ccc(I)c([N+](=O)[O-])c1 [Iniparib] (1 nM) | 94.5%
10 | Oc1ccc2c(c1)CC[C@H](c1ccccc1)[C@@H]2c1ccc(OCCN2CCCC2)cc1 [Lasofoxifene] (0.1 nM) | 95%
11 | Cc1ccc(NC(=O)c2ccc(CN3CCN(C)CC3)cc2)cc1Nc1nc(-c2cccnc2)cs1 [Masitinib] (1 nM) | 98.4%
12 | O=C(Nc1cccnc1)N1CCC(Cc2cccc(Oc3ccc(C(F)(F)F)cn3)c2)CC1 [PF-3845] (1 nM) | 103%
13 | Cc1[nH]c2ccccc2c1CCNCc1ccc(/C=C/C(=O)NO)cc1 [Panobinostat] (0.1 nM) | 108%
14 | COCC1(CO)C(=O)C2CCN1CC2 (centres undefined) [Prima-1 Met] (1 nM) | 93.9%

What follows are molecules tested on HCC1599 in the same assay as above. Conditions: incubation time: 72 h.
Protocol: as §1

Row | SMILES | normalised viability
15 | C=C1C[C@@H]2[C@H](CC[C@]3(C)C(=O)CC[C@@H]23)[C@@]2(C)C=CC(=O)C=C12 [Exemestane] (1 nM) | 84.5%
16 | O=C(Nc1ccncc1)C(=O)c1cn(Cc2ccc(Cl)cc2)c2ccccc12 [Indibulin] (1 nM) | 109%
17 | NC(=O)c1ccc(I)c([N+](=O)[O-])c1 [Iniparib] (1 nM) | 87.8%
18 | Oc1ccc2c(c1)CC[C@H](c1ccccc1)[C@@H]2c1ccc(OCCN2CCCC2)cc1 [Lasofoxifene] (0.1 nM) | 92.2%
19 | Cc1ccc(NC(=O)c2ccc(CN3CCN(C)CC3)cc2)cc1Nc1nc(-c2cccnc2)cs1 [Masitinib] (1 nM) | 92.2%
20 | O=C(Nc1cccnc1)N1CCC(Cc2cccc(Oc3ccc(C(F)(F)F)cn3)c2)CC1 [PF-3845] (1 nM) | 98.9%
21 | Cc1[nH]c2ccccc2c1CCNCc1ccc(/C=C/C(=O)NO)cc1 [Panobinostat] (0.1 nM) | 116%
22 | COCC1(CO)C(=O)C2CCN1CC2 (centres undefined) [Prima-1 Met] (1 nM) | 123%

These molecules were tested on HDQ-P1 in the same assay as above. Conditions: incubation time: 72 h.
Protocol: as §1

Row | SMILES | normalised viability
23 | C=C1C[C@@H]2[C@H](CC[C@]3(C)C(=O)CC[C@@H]23)[C@@]2(C)C=CC(=O)C=C12 [Exemestane] (1 nM) | 100%
24 | O=C(Nc1ccncc1)C(=O)c1cn(Cc2ccc(Cl)cc2)c2ccccc12 [Indibulin] (1 nM) | 77.9%
25 | NC(=O)c1ccc(I)c([N+](=O)[O-])c1 [Iniparib] (1 nM) | 104%
26 | Oc1ccc2c(c1)CC[C@H](c1ccccc1)[C@@H]2c1ccc(OCCN2CCCC2)cc1 [Lasofoxifene] (0.1 nM) | 87%
27 | Cc1ccc(NC(=O)c2ccc(CN3CCN(C)CC3)cc2)cc1Nc1nc(-c2cccnc2)cs1 [Masitinib] (1 nM) | 84.1%
28 | O=C(Nc1cccnc1)N1CCC(Cc2cccc(Oc3ccc(C(F)(F)F)cn3)c2)CC1 [PF-3845] (1 nM) | 145%
29 | Cc1[nH]c2ccccc2c1CCNCc1ccc(/C=C/C(=O)NO)cc1 [Panobinostat] (0.1 nM) | 100%
30 | COCC1(CO)C(=O)C2CCN1CC2 (centres undefined) [Prima-1 Met] (1 nM) | 83%

Each molecule was assayed on MDA-MB-468 in the same assay as above. Conditions: incubation time: 72 h.
Protocol: as §1

Row | SMILES | normalised viability
31 | C=C1C[C@@H]2[C@H](CC[C@]3(C)C(=O)CC[C@@H]23)[C@@]2(C)C=CC(=O)C=C12 [Exemestane] (1 nM) | 117%
32 | O=C(Nc1ccncc1)C(=O)c1cn(Cc2ccc(Cl)cc2)c2ccccc12 [Indibulin] (1 nM) | 102%
33 | NC(=O)c1ccc(I)c([N+](=O)[O-])c1 [Iniparib] (1 nM) | 99.1%
34 | Oc1ccc2c(c1)CC[C@H](c1ccccc1)[C@@H]2c1ccc(OCCN2CCCC2)cc1 [Lasofoxifene] (0.1 nM) | 99.4%
35 | Cc1ccc(NC(=O)c2ccc(CN3CCN(C)CC3)cc2)cc1Nc1nc(-c2cccnc2)cs1 [Masitinib] (1 nM) | 110%
36 | O=C(Nc1cccnc1)N1CCC(Cc2cccc(Oc3ccc(C(F)(F)F)cn3)c2)CC1 [PF-3845] (1 nM) | 104%
37 | Cc1[nH]c2ccccc2c1CCNCc1ccc(/C=C/C(=O)NO)cc1 [Panobinostat] (0.1 nM) | 106%
38 | COCC1(CO)C(=O)C2CCN1CC2 (centres undefined) [Prima-1 Met] (1 nM) | 108%

Each molecule was assayed on MDA-MB-231 in the same assay as above. Conditions: incubation time: 72 h.
Protocol: as §1

Row | SMILES | normalised viability
39 | C=C1C[C@@H]2[C@H](CC[C@]3(C)C(=O)CC[C@@H]23)[C@@]2(C)C=CC(=O)C=C12 [Exemestane] (1 nM) | 93.5%
40 | O=C(Nc1ccncc1)C(=O)c1cn(Cc2ccc(Cl)cc2)c2ccccc12 [Indibulin] (1 nM) | 119%
41 | NC(=O)c1ccc(I)c([N+](=O)[O-])c1 [Iniparib] (1 nM) | 98.9%
42 | Oc1ccc2c(c1)CC[C@H](c1ccccc1)[C@@H]2c1ccc(OCCN2CCCC2)cc1 [Lasofoxifene] (0.1 nM) | 90.2%
43 | Cc1ccc(NC(=O)c2ccc(CN3CCN(C)CC3)cc2)cc1Nc1nc(-c2cccnc2)cs1 [Masitinib] (1 nM) | 93.4%
44 | O=C(Nc1cccnc1)N1CCC(Cc2cccc(Oc3ccc(C(F)(F)F)cn3)c2)CC1 [PF-3845] (1 nM) | 114%
45 | Cc1[nH]c2ccccc2c1CCNCc1ccc(/C=C/C(=O)NO)cc1 [Panobinostat] (0.1 nM) | 109%
46 | COCC1(CO)C(=O)C2CCN1CC2 (centres undefined) [Prima-1 Met] (1 nM) | 89.7%

Each molecule was assayed on CAL-85-1 in the same assay as above. Conditions: incubation time: 72 h.
Protocol: as §1

Row | SMILES | normalised viability
47 | C=C1C[C@@H]2[C@H](CC[C@]3(C)C(=O)CC[C@@H]23)[C@@]2(C)C=CC(=O)C=C12 [Exemestane] (1 nM) | 88.2%
48 | O=C(Nc1ccncc1)C(=O)c1cn(Cc2ccc(Cl)cc2)c2ccccc12 [Indibulin] (1 nM) | 98.9%
49 | NC(=O)c1ccc(I)c([N+](=O)[O-])c1 [Iniparib] (1 nM) | 86%
50 | Oc1ccc2c(c1)CC[C@H](c1ccccc1)[C@@H]2c1ccc(OCCN2CCCC2)cc1 [Lasofoxifene] (0.1 nM) | 83.1%
51 | Cc1ccc(NC(=O)c2ccc(CN3CCN(C)CC3)cc2)cc1Nc1nc(-c2cccnc2)cs1 [Masitinib] (1 nM) | 92.5%
52 | O=C(Nc1cccnc1)N1CCC(Cc2cccc(Oc3ccc(C(F)(F)F)cn3)c2)CC1 [PF-3845] (1 nM) | 89%
53 | Cc1[nH]c2ccccc2c1CCNCc1ccc(/C=C/C(=O)NO)cc1 [Panobinostat] (0.1 nM) | 104%
54 | COCC1(CO)C(=O)C2CCN1CC2 (centres undefined) [Prima-1 Met] (1 nM) | 90.5%

The molecules below were run on MDA-MB-436 in the same assay as above. Conditions: incubation time: 72 h.
Protocol: as §1

Row | SMILES | normalised viability
55 | C=C1C[C@@H]2[C@H](CC[C@]3(C)C(=O)CC[C@@H]23)[C@@]2(C)C=CC(=O)C=C12 [Exemestane] (1 nM) | 95.2%
56 | O=C(Nc1ccncc1)C(=O)c1cn(Cc2ccc(Cl)cc2)c2ccccc12 [Indibulin] (1 nM) | 161%
57 | NC(=O)c1ccc(I)c([N+](=O)[O-])c1 [Iniparib] (1 nM) | 108%
58 | Oc1ccc2c(c1)CC[C@H](c1ccccc1)[C@@H]2c1ccc(OCCN2CCCC2)cc1 [Lasofoxifene] (0.1 nM) | 102%
59 | Cc1ccc(NC(=O)c2ccc(CN3CCN(C)CC3)cc2)cc1Nc1nc(-c2cccnc2)cs1 [Masitinib] (1 nM) | 91.7%
60 | O=C(Nc1cccnc1)N1CCC(Cc2cccc(Oc3ccc(C(F)(F)F)cn3)c2)CC1 [PF-3845] (1 nM) | 99.8%
61 | Cc1[nH]c2ccccc2c1CCNCc1ccc(/C=C/C(=O)NO)cc1 [Panobinostat] (0.1 nM) | 109%
62 | COCC1(CO)C(=O)C2CCN1CC2 (centres undefined) [Prima-1 Met] (1 nM) | 104%

What follows are molecules tested on DU-4475 in the same assay as above. Conditions: incubation time: 72 h.
Protocol: as §1

Row | SMILES | normalised viability
63 | C=C1C[C@@H]2[C@H](CC[C@]3(C)C(=O)CC[C@@H]23)[C@@]2(C)C=CC(=O)C=C12 [Exemestane] (1 nM) | 90.9%
64 | O=C(Nc1ccncc1)C(=O)c1cn(Cc2ccc(Cl)cc2)c2ccccc12 [Indibulin] (1 nM) | 121%
65 | NC(=O)c1ccc(I)c([N+](=O)[O-])c1 [Iniparib] (1 nM) | 87.6%
66 | Oc1ccc2c(c1)CC[C@H](c1ccccc1)[C@@H]2c1ccc(OCCN2CCCC2)cc1 [Lasofoxifene] (0.1 nM) | 93.1%
67 | Cc1ccc(NC(=O)c2ccc(CN3CCN(C)CC3)cc2)cc1Nc1nc(-c2cccnc2)cs1 [Masitinib] (1 nM) | 102%
68 | O=C(Nc1cccnc1)N1CCC(Cc2cccc(Oc3ccc(C(F)(F)F)cn3)c2)CC1 [PF-3845] (1 nM) | 92.1%
69 | Cc1[nH]c2ccccc2c1CCNCc1ccc(/C=C/C(=O)NO)cc1 [Panobinostat] (0.1 nM) | 111%
70 | COCC1(CO)C(=O)C2CCN1CC2 (centres undefined) [Prima-1 Met] (1 nM) | 120%

Each molecule was assayed on BT-474 (assay: normalised response (% of control), CellTiter-Glo; higher = more viable cells (100 = DMSO, 0 = benzethonium chloride kill control)). Conditions: incubation time: 72 h.
Procedure, shortened: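 Breast cancer cell lines in 20 µl suspension were added to 384-well plates containing compound at 5 concentrations, spaced in 10-fold steps across a 10,000-fold range chosen for each compound, and incubated for 72 h. CellTox Green fluorescence was read at 485/520 nm, followed by CellTiter-Glo luminescence after 10 min at room temperature. Signals on each plate were normalised so that 0.1 % DMSO equals 100 and a positive kill control equals 0. Every value in the table is the normalised signal at one concentration of the series.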

Row | SMILES | normalised response
71 | C=C1C[C@@H]2[C@H](CC[C@]3(C)C(=O)CC[C@@H]23)[C@@]2(C)C=CC(=O)C=C12 [Exemestane] (1 nM) | 97.6%
72 | O=C(Nc1ccncc1)C(=O)c1cn(Cc2ccc(Cl)cc2)c2ccccc12 [Indibulin] (1 nM) | 103%
73 | NC(=O)c1ccc(I)c([N+](=O)[O-])c1 [Iniparib] (1 nM) | 83.2%
74 | Oc1ccc2c(c1)CC[C@H](c1ccccc1)[C@@H]2c1ccc(OCCN2CCCC2)cc1 [Lasofoxifene] (0.1 nM) | 106%

From the supplement of paper PMC4862054
